According to patent US20240391948A1, “NOVEL COMPOUND THAT INHIBITS TNF-ALPHA GENERATION AND INFLAMMASOME ACTIVITY AND PREPARATION METHOD THEREFOR” (SHAPERON INC., priority 2021, published 2024):

How the values were obtained:
Format in all cases: cell-based
[1] = system: J774A.1 (Mouse BALB/c monocyte macrophage cell line) cells; assay: LPS-induced TNF-α secretion inhibition in J774A.1 cells; settings: J774.A1, 1 μM compound, graded compared to taurodeoxycholic acid (positive control), read-out: TNF-α production inhibition grade
Experimental: (§1) To evaluate anti-inflammatory efficacy, an inflammatory response was induced in J774A.1 (Mouse BALB/c monocyte macrophage cell line) cells derived from mouse macrophages by LPS (lipopolysaccharide) and LPS+ATP (adenosine triphosphate), and the efficacy of taurine-bile acid derivatives to inhibit the production of inflammatory cytokines (IL-1β, TNF-α) was measured. After treating J774A.1 cells with 1 μM of a taurine-bile acid derivative, the degree to which the secretion of TNF-α among cytokines was suppressed was measured in the experimental group in which an inflammatory response was induced by LPS, and the extent to which IL-1β secretion among cytokines was suppressed was measured in the experimental group in which an inflammatory response was induced with LPS+ATP. The ability of taurine-bile acid derivatives to inhibit cytokine production was graded compared to taurodeoxycholic acid, a positive control. The grading criteria are A: over 100%, B: over 50% and under 100%, C: between 20% and under 50%, and D: under 20%.

[2] = system: J774A.1 (Mouse BALB/c monocyte macrophage cell line) cells; assay: LPS+ATP-induced IL-1β secretion inhibition in J774A.1 cells; settings: J774.A1, 1 μM compound, graded compared to taurodeoxycholic acid (positive control), read-out: IL-1β production inhibition grade
Experimental: as §1

[3] = system: U937 cells (human monocytic cell line); assay: BzATP-induced IL-1β secretion inhibition in PMA-differentiated U937 cells; settings: U-937, U937 cells differentiated with PMA, read-out: IL-1β production inhibition grade (IC50)
Experimental: (§2) To evaluate anti-inflammatory efficacy, U937 cells (human monocytic cell line) were differentiated into macrophages using PMA (phorbol 12-myristate 13-acetate) and then induced an inflammatory response with Pam2CSK4 (Pam2CysSerLys4) or BzATP (2′(3′)—O-(4-Benzoylbenzoyl)adenosine 5′-triphosphate), the efficacy of taurine-bile acid derivatives in suppressing inflammatory cytokine (IL-1β, TNF-α) production was measured.
(§3) Using PMA, U937 cells were differentiated into macrophages, and the extent of TNF-α secretion inhibition was measured in an experimental group where taurine-bile acid derivatives was treated, followed by induction of inflammatory response with Pam2CSK4, and in the experimental group in which an inflammatory response was induced with BzATP, the extent to which IL-1β secretion among cytokines was suppressed was measured.
(§4) The ability of taurine-bile acid derivatives to inhibit cytokine production was expressed in terms of IC50 (μM) values. The standards for TNF α inhibition ability are A: less than 0.5, B: 0.5 to less than 1.0, C: 1.0 to less than 2.0, D: 2.0 or more, and the IL-1β inhibition ability grade standards are A: less than 0.05, B: 0.05 to less than 0.10, C: 0.10 or more and less than 0.20, D: 0.20 or more.

[4] = system: U937 cells (human monocytic cell line); assay: Pam2CSK4-induced TNF-α secretion inhibition in PMA-differentiated U937 cells; settings: U-937, U937 cells differentiated with PMA, read-out: TNF-α production inhibition grade (IC50)
Experimental: as §2, §3, §4

Compound | inhibition at 1 µM [1] [%] | inhibition at 1 µM [2] [%] | IC50 [3] [nM] | IC50 [4] [nM]
CC[C@H]1[C@@H](O)[C@@H]2[C@H](CC[C@]3(C)[C@@H]([C@H](C)CCC(=O)N4CCC[C@@H](S(=O)(=O)O)C4)CC[C@@H]23)[C@@]2(C)CC[C@@H](O)C[C@@H]12 [NC40010] | 50 to 100 | < 20 | ≥ 200 | 500 to 1000
C[C@H](CCC(=O)N1CC(S(=O)(=O)O)C1)[C@H]1CC[C@H]2[C@@H]3[C@H](O)C[C@@H]4C[C@H](O)CC[C@]4(C)[C@H]3C[C@H](O)[C@]12C [NC20012] | < 20 | > 100 | < 50 | 500 to 1000
CC[C@H]1[C@@H](O)[C@@H]2[C@H](CC[C@]3(C)[C@@H]([C@H](C)CCC(=O)N[C@H](Cc4ccccc4)CS(=O)(=O)O)CC[C@@H]23)[C@@]2(C)CC[C@@H](O)C[C@@H]12 [NC40015] | < 20 | > 100 | 50 to 100 | 500 to 1000
C[C@H](CCC(=O)N(CCS(=O)(=O)O)CC(N)=O)[C@H]1CC[C@H]2[C@@H]3CC[C@@H]4C[C@H](O)CC[C@]4(C)[C@H]3C[C@H](O)[C@]12C [NC10005] | < 20 | 20 to 50 | 100 to 200 | 1000 to 2000
C[C@H](CCC(=O)NC(C)(C)CS(=O)(=O)O)[C@H]1CC[C@H]2[C@@H]3CC[C@@H]4C[C@H](O)CC[C@]4(C)[C@H]3CC[C@]12C [NC10064] | < 20 | < 20 | < 50 | < 500
C[C@H](CCC(=O)N1CC(S(=O)(=O)O)C1)[C@H]1CC[C@H]2[C@@H]3CC[C@@H]4C[C@H](O)CC[C@]4(C)[C@H]3CC[C@]12C [NC10063] | < 20 | > 100 | < 50 | 500 to 1000
CC(C)C[C@@H](CS(=O)(=O)O)NC(=O)CC[C@@H](C)[C@H]1CC[C@H]2[C@@H]3CC[C@@H]4C[C@H](O)CC[C@]4(C)[C@H]3CC[C@]12C [NC10086] | < 20 | < 20 | ≥ 200 | < 500
C[C@H](CCC(=O)NCCC(=O)O)[C@H]1CC[C@H]2[C@@H]3[C@H](O)C[C@@H]4C[C@H](O)CC[C@]4(C)[C@H]3C[C@H](O)[C@]12C [NC20002] | 50 to 100 | 50 to 100 | 100 to 200 | ≥ 2000
C[C@H](CCC(=O)N[C@@H]1CCCC[C@@H]1S(=O)(=O)O)[C@H]1CC[C@H]2[C@@H]3CC[C@@H]4C[C@H](O)CC[C@]4(C)[C@H]3CC[C@]12C [NC10082] | > 100 | > 100 | < 50 | < 500
CC[C@H]1[C@@H](O)[C@@H]2[C@H](C[C@H](O)[C@]3(C)[C@@H]([C@H](C)CCC(=O)N[C@H](CS(=O)(=O)O)c4ccccc4)CC[C@@H]23)[C@@]2(C)CC[C@@H](O)C[C@@H]12 [NC50018] | < 20 | 50 to 100 | 50 to 100 | ≥ 2000
CC[C@H]1[C@@H](O)[C@@H]2[C@H](CC[C@]3(C)[C@@H]([C@H](C)CCC(=O)N[C@H](C)CS(=O)(=O)O)CC[C@@H]23)[C@@]2(C)CC[C@@H](O)C[C@@H]12 [NC40029] | < 20 | < 20 | ≥ 200 | 1000 to 2000
C[C@H](CCC(=O)N(CCS(=O)(=O)O)Cc1cccnc1)[C@H]1CC[C@H]2[C@@H]3[C@H](O)C[C@@H]4C[C@H](O)CC[C@]4(C)[C@H]3C[C@H](O)[C@]12C [NC20036] | < 20 | < 20 | 50 to 100 | 500 to 1000
CC[C@H]1[C@@H](O)[C@@H]2[C@H](C[C@H](O)[C@]3(C)[C@@H]([C@H](C)CCC(=O)N[C@H](Cc4ccccc4)CS(=O)(=O)O)CC[C@@H]23)[C@@]2(C)CC[C@@H](O)C[C@@H]12 [NC50015] | < 20 | > 100 | 50 to 100 | 1000 to 2000
CC[C@H]1[C@@H](O)[C@@H]2[C@H](CC[C@]3(C)[C@@H]([C@H](C)CCC(=O)NC[C@@H](C)S(=O)(=O)O)CC[C@@H]23)[C@@]2(C)CC[C@@H](O)C[C@@H]12 [NC40023] | < 20 | < 20 | ≥ 200 | 500 to 1000
C[C@H](CCC(=O)N1CC(S(=O)(=O)O)C1)[C@H]1CC[C@H]2[C@@H]3CC[C@@H]4CC(=O)CC[C@]4(C)[C@H]3CC[C@]12C [NC30012] | < 20 | 20 to 50 | ≥ 200 | ≥ 2000
C[C@H](CCC(=O)N(CCS(=O)(=O)O)C1CCOCC1)[C@H]1CC[C@H]2[C@@H]3[C@H](O)C[C@@H]4C[C@H](O)CC[C@]4(C)[C@H]3C[C@H](O)[C@]12C [NC20008] | < 20 | > 100 | 50 to 100 | 500 to 1000
CC[C@H]1[C@@H](O)[C@@H]2[C@H](CC[C@]3(C)[C@@H]([C@H](C)CCC(=O)N(CCS(=O)(=O)O)Cc4cccnc4)CC[C@@H]23)[C@@]2(C)CC[C@@H](O)C[C@@H]12 [NC40036] | < 20 | 50 to 100 | 50 to 100 | 1000 to 2000
C[C@H](CS(=O)(=O)O)NC(=O)CC[C@@H](C)[C@H]1CC[C@H]2[C@@H]3[C@H](O)C[C@@H]4C[C@H](O)CC[C@]4(C)[C@H]3C[C@H](O)[C@]12C [NC20029] | < 20 | < 20 | 50 to 100 | < 500
C[C@H](CCC(=O)N[C@@H](Cc1ccccc1)CS(=O)(=O)O)[C@H]1CC[C@H]2[C@@H]3[C@H](O)C[C@@H]4C[C@H](O)CC[C@]4(C)[C@H]3C[C@H](O)[C@]12C [NC20014] | < 20 | > 100 | < 50 | 500 to 1000
C[C@H](CCC(=O)N1CCC(S(=O)(=O)O)CC1)[C@H]1CC[C@H]2[C@@H]3CC[C@@H]4C[C@H](O)CC[C@]4(C)[C@H]3C[C@H](O)[C@]12C [NC10011] | > 100 | > 100 | < 50 | < 500
CC[C@H]1[C@@H](O)[C@@H]2[C@H](CC[C@]3(C)[C@@H]([C@H](C)CCC(=O)N[C@H](CC(C)C)CS(=O)(=O)O)CC[C@@H]23)[C@@]2(C)CC[C@@H](O)C[C@@H]12 [NC40031] | < 20 | < 20 | ≥ 200 | 1000 to 2000
C[C@H](CCC(=O)N1CCC[C@@H]1CS(=O)(=O)O)[C@H]1CC[C@H]2[C@@H]3[C@H](O)C[C@@H]4C[C@H](O)CC[C@]4(C)[C@H]3C[C@H](O)[C@]12C [NC20020] | 50 to 100 | 20 to 50 | < 50 | ≥ 2000
C[C@H](CCC(=O)N1CC[C@H](S(=O)(=O)O)C1)[C@H]1CC[C@H]2[C@@H]3CC[C@@H]4C[C@H](O)CC[C@]4(C)[C@H]3C[C@H](O)[C@]12C [NC10048] | < 20 | 50 to 100 | 50 to 100 | < 500
C[C@H](CCC(=O)N1CCN(S(=O)(=O)O)CC1)[C@H]1CC[C@H]2[C@@H]3CC[C@@H]4C[C@H](O)CC[C@]4(C)[C@H]3C[C@H](O)[C@]12C [NC10009] | > 100 | > 100 | < 50 | < 500
CC(C)C[C@@H](CS(=O)(=O)O)NC(=O)CC[C@@H](C)[C@H]1CC[C@H]2[C@@H]3CC[C@@H]4C[C@H](O)CC[C@]4(C)[C@H]3C[C@H](O)[C@]12C [NC10045] | < 20 | 50 to 100 | 50 to 100 | < 500
